Converted amounts (≈) assume the structure as drawn.
Assays:
[1] = Solubility in water, methanol and isopropanol; details: for solubility Water: in water; for solubility Isopropanol: in isopropanol; for solubility Methanol: in methanol
Procedure: The solubility in water, methanol, and isopropanol of the compounds of the present disclosure and the comparative compounds were measured separately.

histamine-induced asthma = assay: Antiasthmatic effect on histamine-induced asthma in guinea pigs (latency period); assay type: in vivo; details: 1 mg/kg oral gavage, sixty minutes after administration; histamine hydrochloride spray; no asthma within 8 minutes counted as 8 minutes; X±s, n = 5
Procedure: The guinea pigs were placed in a polymethyl methacrylate bell jar and a histamine hydrochloride solution was sprayed ultrasonically (0.8 mg/mL) for 40 seconds. The time point at which the guinea pigs developed asthma was recorded. The time of convulsion and fall was taken as the latency period. Guinea pigs with a latency period exceeding 180 seconds were not selected. […] The guinea pigs were administered by oral gavage at a dose of 2 mL/kg·bw. Sixty minutes after the administration, the guinea pigs were placed in bell jars, and histamine hydrochloride solution was sprayed under the same conditions as in the previous selection. The latency period for the onset of asthma was recorded. […] The results were processed statistically.

[2] = test system: isolated ileal smooth muscle; assay: Muscle tone of isolated ileal smooth muscle of guinea pigs, compound alone; details: Table 3, no histamine, X±s, n = 8; for Smooth muscle tone (g) After administration: 5 minutes after adding the drug; for Antispasmodic percentage (%): relative to tone before adding compound, 5 min
Procedure: (§1) The guinea pig was knocked unconscious with a wooden stick, and the abdomen was immediately dissected to separate the ileum about 15 cm in length. The contents of the intestinal segment were flushed with Tyrode's solution and placed in Tyrode's solution at a constant temperature of 37°C for later use, and oxygen was supplied simultaneously. The experimental intestinal tract (1 cm in length) was cut and placed into 20 ml of Tyrode's solution at a constant temperature of 37°C with a continuous oxygen supply. One end of the intestine was fixed on the ventilation hook and the other end was connected to the muscle tone transducer and led to the computer interface. The muscle tone value of the ileal smooth muscle was recorded with a BL system. The experiment was carried out after the intestinal segment contraction became stable.
After the ileum contraction curve stabilized, the tone values before adding the drug were recorded, then the drug or DMSO was added, and the average tone value of the ileum contraction curve at that point was recorded 5 minutes later. The operation was repeated 8 times. The antispasmodic percentage was calculated according to the following formula. Antispasmodic percentage =; (Tone value before adding subject compound−Tone value after adding subject compound)/(Tone value before adding subject compound) × 100% [formula]

[3] = Muscle tone of isolated ileal smooth muscle of guinea pigs contracted with histamine; details: Table 4; 3 minutes after adding 0.05 mL compound at maximum histamine contraction; x±s, n = 8
Procedure: as §1
(§2) After the ileal peristalsis curve stabilized, the tone values before adding the compound were recorded, and then 0.05 mL of histamine was added. […] The operation was repeated 8 times. The antispasmodic percentage was calculated using the following equation. Antispasmodic percentage; = (Tone value after adding histamine−Tone value after adding subject compound)/(Tone value after adding histamine) × 100% [formula]

histamine = assay: as above; details: Table 4; relative to tone after adding histamine; x±s, n = 8; 3 min
Procedure: as §1, §2

[4] = Accelerated stability test; assay type: physicochemical; details: 40°C ± 2°C, relative humidity 75% ± 5%; for remaining at 730 h / remaining at 1460 h / remaining at 2190 h / remaining at 4380 h: storage 75% relative humidity, read-out: Content

solubility Water [1]	Content ([4]; Month 0)	Description ([4]; Month 0)	Related substances ([4]; Month 0)	Description ([4]; Month 1)	Related substances ([4]; Month 1)	Description ([4]; Month 2)	Related substances ([4]; Month 2)	Description ([4]; Month 3)	Related substances ([4]; Month 3)	Description ([4]; Month 6)	Related substances ([4]; Month 6)	remaining at 730 h ([4]; Month 1)	remaining at 1460 h ([4]; Month 2)	remaining at 2190 h ([4]; Month 3)	Structure (SMILES)	Post-administration latency period (histamine-induced asthma)	Smooth muscle tone (g) After administration [2]	Antispasmodic percentage (%) [2]	Smooth muscle tone (g) After administration [3]	Antispasmodic percentage (%) (histamine)	further results
–	99.7%	White powder	0.03%	White powder	0.06%	White powder	0.12%	White powder	0.16%	White powder	0.34%	99.6%	99.5%	99.5%	O=P(O)(O)OCOCCCCN1CCC(=C2c3ccc(Cl)cc3CCc3cccnc32)CC1 [Compound III-18]	354.29 ± 50.81 s	1.13 ± 0.21 g	34.30±18.66%	1.18 ± 0.26 g	65.50±19.34%	remaining at 4380 h ([4]; Month 6): 99.4%
–	99.7%	White powder	0.03%	White powder	0.04%	White powder	0.05%	White powder	0.06%	White powder	0.10%	99.7%	99.7%	99.7%	O=P(O)(O)OCOCCCN1CCC(=C2c3ccc(Cl)cc3CCc3cccnc32)CC1 [Compound IV-9]	361.82 ± 51.36 s	1.17 ± 0.25 g	32.75±19.48%	1.18 ± 0.29 g	65.89±19.76%	remaining at 4380 h ([4]; Month 6): 99.6%
–	–	–	–	–	–	–	–	–	–	–	–	–	–	–	O=P(O)(O)OCCCCN1CCC(=C2c3ccc(Cl)cc3CCc3cccnc32)CC1 [Compound III-10]	370.80 ± 51.23 s	1.15 ± 0.26 g	–	1.22 ± 0.19 g	65.24±18.39%	solubility Isopropanol [1]: 25 mg/mL (≈ 54 mM)
–	–	–	–	–	–	–	–	–	–	–	–	–	–	–	O=P(O)(O)OCCCN1CCC(=C2c3ccc(Cl)cc3CCc3cccnc32)CC1 [Compound III-7]	382.57 ± 51.11 s	–	29.88±18.88%	–	65.36±17.20%	solubility Isopropanol [1]: 22 mg/mL (≈ 49 mM)
367 mg/mL (≈ 769 mM)	–	–	–	–	–	–	–	–	–	–	–	–	–	–	O=P(O)(O)OCCCCCN1CCC(=C2c3ccc(Cl)cc3CCc3cccnc32)CC1 [Compound IV-6]	361.94 ± 53.19 s	1.14 ± 0.25 g	34.10±18.93%	1.18 ± 0.21 g	65.80±19.03%	solubility Isopropanol [1]: 5 mg/mL (≈ 10.5 mM); solubility Methanol [1]: 30 mg/mL (≈ 62.9 mM)
–	–	–	–	–	–	–	–	–	–	–	–	–	–	–	O=P(O)(O)OCCCN1CCC(=C2c3ccc(Cl)cc3CCc3cccnc32)CC1 [Compound IV-3]	375.50 ± 47.99 s	–	32.00±19.55%	–	64.11±19.66%	solubility Isopropanol [1]: 1 mg/mL (≈ 2.23 mM); solubility Methanol [1]: 21 mg/mL (≈ 46.8 mM); solubility ([1]; water): 390 mg/mL (≈ 869 mM)
Practically insoluble	–	–	–	–	–	–	–	–	–	–	–	–	–	–	OCCN1CCC(=C2c3ccc(Cl)cc3CCc3cccnc32)CC1 [Hydroxyethyl desloratadine, hydroxyethyl desloratadine, reference compound]	284.11 ± 59.10 s	1.30 ± 0.30 g	23.97±10.32%	1.43 ± 0.41 g	57.94±11.45%	–
Practically insoluble	–	–	–	–	–	–	–	–	–	–	–	–	–	–	OCCCCCN1CCC(=C2c3ccc(Cl)cc3CCc3cccnc32)CC1 [Hydroxypentyl desloratadine, hydroxypentyl desloratadine, reference compound]	280.29 ± 58.19 s	1.24 ± 0.22 g	28.73±11.32%	1.41 ± 0.42 g	–	–
Practically insoluble	–	–	–	–	–	–	–	–	–	–	–	–	–	–	OCCCCCCN1CCC(=C2c3ccc(Cl)cc3CCc3cccnc32)CC1 [Hydroxyhexyl desloratadine, hydroxyhexyl desloratadine, reference compound]	283.84 ± 58.88 s	1.26 ± 0.23 g	26.31±13.96%	1.43 ± 0.43 g	–	–
–	99.6%	White powder	0.03%	White powder	0.06%	White powder	0.11%	White powder	0.15%	White powder	0.32%	99.5%	99.5%	99.5%	O=P(O)(O)OCCCCCN1CCC(=C2c3ccc(F)cc3CCc3cccnc32)CC1 [Compound III-14]	372.40 ± 50.33 s	1.18 ± 0.28 g	31.79±17.77%	1.15 ± 0.22 g	66.07±19.34%	remaining at 4380 h ([4]; Month 6): 99.3%
Practically insoluble	–	–	–	–	–	–	–	–	–	–	–	–	–	–	OCCCN1CCC(=C2c3ccc(Cl)cc3CCc3cccnc32)CC1 [Hydroxypropyl desloratadine, hydroxypropyl desloratadine, reference compound]	288.33 ± 58.12 s	1.28 ± 0.25 g	24.70±13.43%	1.41 ± 0.42 g	–	–

Structure (SMILES)	solubility Water [1]	Content ([4]; Month 0)	Description ([4]; Month 0)	Related substances ([4]; Month 0)	Description ([4]; Month 1)	Related substances ([4]; Month 1)	Description ([4]; Month 2)	Related substances ([4]; Month 2)	Description ([4]; Month 3)	Related substances ([4]; Month 3)	Description ([4]; Month 6)	Related substances ([4]; Month 6)	remaining at 730 h ([4]; Month 1)	remaining at 1460 h ([4]; Month 2)	remaining at 2190 h ([4]; Month 3)	Post-administration latency period (histamine-induced asthma)	Smooth muscle tone (g) After administration [2]	Antispasmodic percentage (%) [2]	Smooth muscle tone (g) After administration [3]	Antispasmodic percentage (%) (histamine)	further results
Clc1ccc2c(c1)CCc1cccnc1C2=C1CCNCC1 [Desloratadine, desloratadine, reference compound]	Practically insoluble	–	–	–	–	–	–	–	–	–	–	–	–	–	–	–	–	–	–	–	–
O=P(O)(O)OCOCCN1CCC(=C2c3ccc(Cl)cc3CCc3cccnc32)CC1 [Compound IV-8]	–	99.6%	White powder	0.03%	White powder	0.06%	White powder	0.09%	White powder	0.14%	White powder	0.28%	99.6%	99.5%	99.5%	360.12 ± 52.01 s	1.19 ± 0.29 g	30.81±18.93%	1.19 ± 0.28 g	65.50±19.11%	remaining at 4380 h ([4]; Month 6): 99.3%
O=P(O)(O)OCCN1CCC(=C2c3ccc(Cl)cc3CCc3cccnc32)CC1 [Compound IV-2]	–	99.6%	White powder	0.03%	White powder	0.05%	White powder	0.09%	White powder	0.13%	White powder	0.26%	99.6%	99.5%	99.5%	383.10 ± 50.33 s	1.19 ± 0.31 g	33.14±18.39%	1.18 ± 0.19 g	65.56±19.28%	remaining at 4380 h ([4]; Month 6): 99.4%

Reference: EP4559923A1, “ANTIHISTAMINE COMPOUND, AND PREPARATION METHOD THEREFOR AND USE THEREOF” (HC Synthetic Pharmaceutical Co., Ltd., priority 2022, dated 2024)
